Experimental data: publication PMC10464297, “Reevaluation of bromodomain ligands targeting BAZ2A” (Protein Science : A Publication of the Protein Society, 2023)
Entries after “also recorded” stand apart in the source; their conditions may differ.

Assays:
PCa cancer stem cells = test system: PCa cancer stem cells; design: method as in Peña‐Hernández et al., [2021]; details: ref Peña‐Hernández et al., [2021]; cited from earlier work
[1] = test system: 22Rv1 (AR‐positive) PCa cells; assay: 2D proliferation assay (resazurin), 22Rv1; type: cell-based
Procedure: (§1) Cell cultures, proliferation assay and spheroid gro wth
PC3 and 22Rv1 cells were cultured in RPMI 1640 medium containing 10% FBS, 1% penicillin-streptomycin and 2 m M L-glutamine. All cells were regularly tested for mycoplasma contamination.
For the proliferation assay, cells were counted with a hemocytometer and seeded in triplicates in 96-well plates (4 .5x10^3 cells/well for 22Rv1 and 2.0x103 for PC3) and let adhere overnight at 37°C, 5% CO2. The following day, the medium was replaced with RPMI 1640 containing either the carrier […]
transfected with siRNA for BAZ2A , RLUC or KIF11, as detailed below. The cells were incubated for 1, 3, 6 (PC3) and 9 days (22Rv1) and the medium containing either the carrier or the inhibitors was replaced every 3 day s. Cell proliferation and viability were determined at day 1, 3, 6 and 9 by adding 10% resazurin sodium salt solution (0. 03 mg/ml powder from Sigma -Aldrich) directly into each well and incubating them for 4h at 37°C, 5% CO 2. The absorbance at 570/600 nm was measured using a Varioskan plate reader. The reduction of the resazur in sodium salt was calculated using the formula: (Abs x – Abs 0. 1%DMSO day1)/(Abs 0. 1%DMSO day9 - Abs 0. 1%DMSO day1). The growth rate was analysed using the linear regression algorithm of GraphPad Prism. […]

[2] = test system: panel of receptors, channels and transporters; design: method as in https://www.thesgc.org/chemical-probes/BAZ2-ICR; details: ref https://www.thesgc.org/chemical-probes/BAZ2-ICR; cited from earlier work
22Rv1 spheroids = assay: Spheroid growth (3D), 22Rv1; type: cell-based
Procedure: as §1
PC3 and 22Rv1 cells were cultured in RPMI 1640 medium containing 10% FBS, 1% penicillin-streptomycin and 2 m M L-glutamine. All cells were regularly tested for mycoplasma contamination. […]
Spheroids were obtained by plating PC3 and 22Rv1 cells in low -adhesion round bottom 96 -well plates. For 22Rv1, 2500 cells/well were seeded in 200 µl RPMI 1640; for PC3, 250 cells/well were seeded in 200 µl RPMI 1640 supplemented with 1.5% Matrigel. After seeding, the cells were centrifuged for 10 min at 1200 x g at 4°C. Spheroids were given 48 hours to form after seeding before adding the treatment or the carrier (0.1% DMSO). Medium supplemented with treatment/carrier was changed every 48 hours, for a total of 32 days for 22Rv1 and 16 days for PC3. Each spheroid was imaged in brightfield every day or every other day (after day 20), using a Leica DM IL microscope […]
equipped with a Leica DFC450C digital camera. The area of each spheroid was measured using ImageJ and the average area for each condition was calculated. The growth rate was analysed using the segmental linear regression algorithm of GraphPad Prism. The appropriateness of the model was evaluated by considering the R square values and the Replicates test (Suppl. Table 6). […]

For `Cn1cc(CCn2cnc(-c3cnn(C)c3)c2-c2ccc(C#N)cc2)cn1` [BAZ2‐ICR], the “efficacy on PCa cancer stem cells” value (PCa cancer stem cells) is given as “effective on PCa cancer stem cells”, the “effect on 2D growth of 22Rv1 cells” value ([1]; 2D‐cell culture, 22Rv1) is given as “did not affect growth; also recorded: but not BAZ2‐ICR, reduces 2D growth” and the “effect on viability of 22Rv1 cells” value ([1]; 2D‐cell culture, 22Rv1) is given as “did not affect growth or viability”. The “Slope (best-fit, linear regression of growth curve)” value ([1]; 22Rv1, 0.5 µM) was 0,1041, the “Slope (best-fit, linear regression of growth curve)” value ([1]; 22Rv1, 5 µM) was 0,1046 and the “Slope (best-fit, linear regression of growth curve)” value ([1]; 22Rv1, 10 µM) was 0,1034. For the same molecule, the “Slope (best-fit, linear regression of growth curve)” value ([1]; 22Rv1, 25 µM) was 0,1066, the “profile on panel of receptors, channels and transporters” value [2] was “clean” and the “effect on growth of 22Rv1 spheroids” value (22Rv1 spheroids; 3D setting, GSK2801 25 μM, BAZ2‐ICR 25 μM, BI9564 20 μM) was “similarly affect the growth of 22Rv1 cells; also recorded: interestingly impacting those deriving from 22Rv1 cells”. For the same molecule, the “slope2 (segmental linear regression of spheroid growth)” value (22Rv1 spheroids; 22Rv1 spheroids, 25 µM, after X0 = day 9) was 10618 and the “slope1 (segmental linear regression of spheroid growth)” value (22Rv1 spheroids; 22Rv1 spheroids, 25 µM, before X0 = day 9) was 17642.
